# Laboratory results from US9221868B2, “Uridine di- or tri-phosphate derivatives and uses thereof” (BAR-ILAN UNIVERSITY, priority 2010, dated 2015).
# Key:
# P2Y6-R = target: T1, P2Y6-R (Homo sapiens, UniProt Q15077); assay: [Ca2+]i increase in 1321N1 astrocytoma cells expressing P2Y6-R; assay type: cell-based; conditions: for EC50: 1321N1 astrocytoma cells, [Ca2+]i, read-out: Potencies (EC50) at the P2Y6-R
# T1 construct: expressed in transfected cells; host or cells: 1321N1 astrocytoma cells
# Procedure: Green fluorescent protein (GFP) constructs of human P2Y2-R, P2Y4-R and P2Y6-R were expressed in 1321N1 astrocytoma cells, which lack endogenous expression of P2X- and P2Y-receptors. The respective cDNA of the receptor gene was cloned into a pEGFPN1 vector. After transfection using FuGENE 6 Transfection Reagent (Roche Molecular Biochemicals, Mannheim, Germany), the cells were selected with 0.5 mg/ml G418 (geneticine; Merck Chemicals, Darmstadt, Germany) and grown in Dulbecco's modified Eagles' medium (DMEM) supplemented with 10% fetal calf serum, 100 U/ml penicillin and […] at 37° C. and 5% CO2. The expression and cell membrane localization of the respective P2Y receptors was confirmed through the analysis of the GFP fluorescence. The functionality of the expressed GFP-labeled receptor in cells was verified by recording a change of [Ca^2+]i after stimulation with the appropriate receptor agonist.
# 1321N1 astrocytoma cells transfected with the respective plasmid for P2YR-GFP expression plated on coverslips (22 mm diameter) and grown to approximately 80% density were incubated with 2 μM fura 2/AM and 0.02% pluronic acid in Na-HBS buffer (Hepes buffered saline: 145 mM NaCl, 5.4 mM KCl, 1.8 mM CaCl2, 1 mM MgCl2, 25 mM glucose, 20 mM Hepes/Tris pH 7.4) for 30 min at 37° C. The cells were superfused (1 ml/min, 37° C.) with different concentrations of nucleotide in Na-HBS buffer, and the nucleotide-induced change of [Ca^2+]i was measured by detecting the respective emission intensity of fura 2/AM at 510 nm with after 340 nm and 380 nm excitations (Ubl et al., 1998). The average maximal amplitude of the responses and the respective standard errors were calculated from the ratio of the fura 2/AM fluorescence intensities with excitations at 340 nm and 380 nm (only MT-labeled cells were analysed). Microsoft Excel (Microsoft Corp., Redmond, Wash., USA) and SigmaPlot (SPSS Inc., Chicago, Ill., USA) were used to derive the concentration-response curves and EC50 values from the average response amplitudes obtained in at least three independent experiments (Ecke et al., 2006, 2008). Only cells with a clear MT-signal and with the typical calcium response kinetics upon agonist pulse application were included in the data analysis. The GFP-tagged P2Y receptors are suitable for pharmacological and physiological studies, as previously reported (Tulapurkar et al., 2004, 2006; Zylberg et al., 2007).
# 1321N1 cell lines stably expressing the human P2Y6 receptors were grown as previously described in DMEM (5% FBS, 100 IU/ml penicillin, 100 μg/ml streptomycin, 1× Glutamax, 10 mM Hepes and 0.5 mg/ml G-418) at 37° C. in a humidified atmosphere containing 5% CO2 and 95% air (Gendron et al., 2003).
# 1321N1 cells (10×10^6 cells grown in 10 cm^2 dishes) were harvested by a brief trypsin/EDTA treatment, suspended in complete culture medium, and washed by centrifugation for 3 min at 100×g before being incubated with 1 μM Fluo 4/AM in 4.5 ml HBSS with Ca^2+ and Mg^2+ (Wisent, St. Bruno, QC) for 25 min at 37° C. Cells were washed by centrifugation (100×g, 3 min), suspended in HBSS containing Ca^2+ and Mg^2+, and incubated for 25 min at 37° C. Cells were washed and suspended in 16 ml of FIBSS containing Ca^+ and Mg^2+. Cell suspension (2 ml) was gently stirred in a quartz cuvette while [Ca^2+]i and monitored on a RF-5301 PC Shimadzu spectrofluorometer with Panormama fluorescence 1.1 software (Man-Tech, Guelph, ON). Excitation wavelengths of 488 nm and emission wavelength of 520 nm were used to measure changes in intracellular Fluo 4 fluorescence intensity (F). At the end of each recording, maximal fluorescence (Fmax) and minimal fluorescence (Fmin) were determined by adding successively 0.1% Triton X-100 and 50 mM EDTA to cell suspensions. The following equation from Grynkiewicz et al. (1985) was used to relate the fluorescence intensity to Ca^2+ levels: [Ca^2+]=Kd×(F−Fmin)/(Fmax−F), wherein Kd is the Ca^+ dissociation constant of the indicator (345 nM). […]
# [1] = system: intraocular pressure in normotense rabbits; assay: Intraocular pressure (IOP) in normotense rabbits; assay type: in vivo, New Zealand white rabbits; conditions: for Reduction of IOP: applied to the cornea, 100 μM, 10 μl
# Procedure: Twenty-four male New Zealand white rabbits (2.5±0.5 kg) were kept in individual cages with free access to food and water on controlled 12 h/12 h light/dark cycles. All the protocols used adhere to the Association for Research in Vision and Ophthalmology (ARVO) Statement for the Use of Animals in Ophthalmology and Vision Research and also are in accordance with the European Communities Council Directive (86/609/EEC).
# Intraocular pressure (IOP) was measured by means of a TonoVET rebound tonometer supplied by Tiolat Oy (Helsinki, Finland). […] For single dose experiments, different analogues were applied unilaterally to the cornea at a concentration of 100 μM and a fixed volume of 10 μl. The contralateral eye received the same volume of saline solution (0.9% NaCl, vehicle). Two IOP measurements were taken before any analogue was instilled. Experiments were performed following a blinded design where no visible indication was given to the experimenter as to the nature of the applied solution. IOP was followed up to 8 h to study the time course of the effect. Some of the analogues were assayed over a range of doses from 1 nM to 100 μM to generate dose-response curves. For these experiments, […] was measured as the maximal response obtained with each dose of the analogue. Dose-response curves were calculated by plotting the IOP value for given concentration versus that concentration (from 1 nM to 100 μM). pD2 values were obtained by fitting the values to a dose-response-curve equation according to ORIGIN8.0 software. With the pD2 value it was possible to calculate the EC50 by multiplying by −1 and then take the antilogarithm. The obtained value is the EC50 expressed in molar concentration. In all experiments, on any given day, only a single dose was tested on a single animal, which was washed out at least 2 days between doses. […]
# All data are presented as the means±s.e.m. Significant differences were determined by two-tailed Student's t-tests. […]
# T1 sequence (Q15077 whole entry): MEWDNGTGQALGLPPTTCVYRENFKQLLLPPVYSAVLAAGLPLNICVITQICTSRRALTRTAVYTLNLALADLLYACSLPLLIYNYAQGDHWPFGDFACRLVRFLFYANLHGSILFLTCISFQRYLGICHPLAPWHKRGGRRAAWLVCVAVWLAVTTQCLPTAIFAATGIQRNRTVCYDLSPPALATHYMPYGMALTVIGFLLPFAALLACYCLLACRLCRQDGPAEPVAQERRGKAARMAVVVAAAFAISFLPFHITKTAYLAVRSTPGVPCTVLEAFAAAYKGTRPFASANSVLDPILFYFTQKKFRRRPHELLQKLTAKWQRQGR
Structure (SMILES),EC50 (P2Y6-R) [nM],Reduction of IOP [1] [%],Potency of A-isomer relative to the corresponding B-isomer at P2Y6-R (P2Y6-R; ratio of EC50 values),Duration of action (IOP reduction) [1]
"O=c1ccn([C@@H]2O[C@H](COP(=O)(O)OP(=O)(O)O)[C@@H](O)[C@H]2O)c(=O)[nH]1 [UDP, reference compound]",150,,,
"COc1cn([C@@H]2O[C@H](COP(=O)(O)OP(=O)(O)O)[C@@H](O)[C@H]2O)c(=O)[nH]c1=O [Analogue 12, 5-methoxyuridine diphosphate]",,31,,
"[BH3-][P+](O)(OCC1OC(n2cc(OC)c(=O)[nH]c2=O)C(O)C1O)OP(=O)(O)O (single isomer, unassigned) [Analogue 13A, 5-methoxyuridine-5′-O-(α-boranodiphosphate)]",8,45,more than 500 fold,about 4 h
